Laboratory results: patent publication US9980943B2, “Methods of treating muscular dystrophy” (BOARD OF REGENTS OF THE NEVADA SYSTEM OF HIGHER EDUCATION, …, priority 2013, dated 2018)

Assays:
Format in all cases: cell-based, mouse
[1] = tested on: α7 integrin (LacZ reporter in α7+/LacZ myotubes); assay: Myotube α7 integrin FDG assay (Burkin assay in myotubes, 96-well); conditions: myotubes
[2] = tested on: β-galactosidase in CMV-LacZ C2C12 myoblasts; assay: CMV-LacZ secondary screen in C2C12 myoblasts (β-Gal stabilizing assay); conditions: CMV-LacZ C2C12 myoblasts
Method in brief: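 Dose-response runs at 0.5–40 μM (0.5, 1, 5, 10, 20, 40 μM; N=2 per point) used a clonal C2C12 line carrying CMV-LacZ. Cells were assayed as myoblasts or as differentiated myotubes, and β-galactosidase levels were read with the FDG fluorogenic substrate.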

[3] = tested on: α7 integrin (LacZ reporter in α7βgal+/− myoblasts); assay: Myoblast α7+/LacZ integrin FDG assay (Burkin assay in myoblasts, 96-well); conditions: α7+/LacZ myoblasts, 96-well
[4] = tested on: β-galactosidase in CMV-LacZ C2C12 myotubes; assay: CMV-LacZ secondary screen in C2C12 myotubes (β-Gal stabilizing assay); conditions: C2C12 CMV-LacZ myotubes, fold relative to DMSO
Method in brief: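 First, C2C12 myoblasts were transfected with a linearized CMV-LACZ vector and clonal lines selected by FDG β-gal assay. Then cells were exposed to compounds at 0.5, 1, 5, 10, 20 and 40 μM in 96-well format, two replicates each, and β-gal measured.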

Compound | Burkin Assay in Myotubes, α7 integrin LacZ reporter signal relative to DMSO ([1]; 0.5 uM) | Burkin Assay in Myotubes, α7 integrin LacZ reporter signal relative to DMSO ([1]; 1 uM) | Burkin Assay in Myotubes, α7 integrin LacZ reporter signal relative to DMSO ([1]; 5 uM) | Burkin Assay in Myotubes, α7 integrin LacZ reporter signal relative to DMSO ([1]; 10 uM) | Burkin Assay in Myotubes, α7 integrin LacZ reporter signal relative to DMSO ([1]; 20 uM) | Burkin Assay in Myotubes, α7 integrin LacZ reporter signal relative to DMSO ([1]; 40 uM) | CMV-LACZ in Myoblasts (β-galactosidase activity relative to DMSO) ([2]; 0.5 uM) | CMV-LACZ in Myoblasts (β-galactosidase activity relative to DMSO) ([2]; 1 uM) | CMV-LACZ in Myoblasts (β-galactosidase activity relative to DMSO) ([2]; 5 uM) | CMV-LACZ in Myoblasts (β-galactosidase activity relative to DMSO) ([2]; 10 uM) | CMV-LACZ in Myoblasts (β-galactosidase activity relative to DMSO) ([2]; 20 uM) | CMV-LACZ in Myoblasts (β-galactosidase activity relative to DMSO) ([2]; 40 uM) | Burkin Assay in Myoblasts, signal relative to DMSO ([3]; 0.5 uM) | Burkin Assay in Myoblasts, signal relative to DMSO ([3]; 1 uM) | Burkin Assay in Myoblasts, signal relative to DMSO ([3]; 5 uM) | Burkin Assay in Myoblasts, signal relative to DMSO ([3]; 10 uM) | Burkin Assay in Myoblasts, signal relative to DMSO ([3]; 20 uM) | Burkin Assay in Myoblasts, signal relative to DMSO ([3]; 40 uM) | CMV-LACZ in Myotubes, signal relative to DMSO ([4]; 0.5 uM) | CMV-LACZ in Myotubes, signal relative to DMSO ([4]; 1 uM) | other results
Cc1ccccc1-n1c(Cc2cccs2)n[nH]c1=S [MLS000568234-01] | 1.08 | 1.167 | 0.9642 | 1.09 | 0.8694 | 0.9705 | 0.9556 | 0.9372 | 0.9043 | 0.9894 | 0.8819 | 0.7322 | 1.094 | 1.032 | 1.136 | 1.373 | 1.106 | 1.011 | 1.3844 | 1.2622 | CMV-LACZ in Myotubes, signal relative to DMSO ([4]; 5 uM): 1.0764; CMV-LACZ in Myotubes, signal relative to DMSO ([4]; 10 uM): 0.9074; CMV-LACZ in Myotubes, signal relative to DMSO ([4]; 20 uM): 0.9918; CMV-LACZ in Myotubes, signal relative to DMSO ([4]; 40 uM): 0.9141
O=C(Nc1ccccc1OC(=O)c1ccc(Cl)cc1)c1ccc(Cl)cc1 [MLS000573208-01] | 0.9453 | 1.007 | 0.98 | 1.045 | 0.8239 | 0.5966 | 1.0197 | 0.9594 | 1.1030 | 0.8678 | 0.6626 | 0.9289 | 1.031 | 1.015 | 0.9523 | 0.8121 | 1.632 | 0.6235 | 0.9547 | 1.3021 | CMV-LACZ in Myotubes, signal relative to DMSO ([4]; 5 uM): 1.1765; CMV-LACZ in Myotubes, signal relative to DMSO ([4]; 10 uM): 0.8913; CMV-LACZ in Myotubes, signal relative to DMSO ([4]; 20 uM): 0.9633; CMV-LACZ in Myotubes, signal relative to DMSO ([4]; 40 uM): 0.9478
CN(/C(=N/S(=O)(=O)c1cccs1)c1ccccc1)c1ccccc1 [MLS000582947-01] | 0.9003 | 1.155 | 1.02 | 0.9759 | 1.102 | 0.791 | 0.9691 | 0.8991 | 1.1273 | 1.0067 | 0.7811 | 0.8819 | 1.236 | 0.9632 | 0.943 | 0.9807 | 0.9417 | 0.7737 | 0.8848 | 0.9610 | CMV-LACZ in Myotubes, signal relative to DMSO ([4]; 5 uM): 0.9280; CMV-LACZ in Myotubes, signal relative to DMSO ([4]; 10 uM): 0.9127; CMV-LACZ in Myotubes, signal relative to DMSO ([4]; 20 uM): 1.0729; CMV-LACZ in Myotubes, signal relative to DMSO ([4]; 40 uM): 1.0247
